Measurements: paper PMC7011998 (Journal of Enzyme Inhibition and Medicinal Chemistry, 2017)
pIC50: −log10 of the molar value.

Assays:
Trypanosoma cruzi = tested on: Trypanosoma cruzi; design: method as in PMID 23815159; details: unformulated sulfonamides; cited from earlier work
[1] = Dissolution of sulfonamides in clove oil; details: concentration 5 mg/ml in clove oil
Procedure: Oil phase was prepared by sulfonamides dissolution in the clove oil. A 5 mg of drug was weighted in an eppendorf and 1 ml of clove oil was added. The tube was agitated for 1 min for obtaining of the drug solution (5 mg/ml). Aqueous phase were prepared by adding 1 g of Pluronic F127® in 8 mg of water. Then 1 ml of oil phase (drug dissolved in clove oil) was added to 9 ml of aqueous phase (Pluronic F127 in water) under constant ultrasound homogenization (amplitude 80%, continuous cycle n. 1) during 5 min in an ice bath at 5 °C to prevent heating of the dispersion.
The NEs were produced with 10% of oil phase.

[2] = tested on: T. cruzi Y strain epimastigotes; test: Growth inhibition of T. cruzi epimastigotes, resazurin microdilution, Y strain; assay type: cell-based; details: Trypanosoma cruzi; TcY epimastigotes, drug nanoemulsions; read-out: IC90 (concentration which reduced the proliferation of epimastigotes by 90%)
Procedure: (§1) Epimastigote forms of the T. cruzi clone Dm28c ([…])[31] and Y([…])[32]^,[33] strains obtained from the Laboratory of Cellular Ultrastructure (both laboratories of the Oswaldo Cruz Foundation, Rio de Janeiro, Brazil) were used. The parasites were maintained in PBHIL medium supplemented with 10% bovine serum (FBS) at 28 °C[34].
(§2) The Minimum inhibitory concentration (MIC) for epimastigotes was performed with resazurin as an indicator of cellular metabolic function and it was determined as the lowest concentration capable of inhibiting in vitro growth of the parasites.

[3] = tested on: T. cruzi Dm28c strain epimastigotes; test: Flow cytometry annexin V-FITC / propidium iodide, Dm28c; assay type: cell-based, Trypanosoma cruzi; details: 32 μM
Procedure: The analysis of the externalization of phosphatidylserine was performed using annexin V fluoresceine isothiocyanate (AV FITC) and propidium iodide, PI (Santa Cruz Biotechonology, Santa Cruz, CA). The cells were analysed by flow cytometry (FACS Calibur-Beckton-Dickinson), 50,000 events were analysed by the Paint-a-gate program and values were expressed as percentage of cells positive for a given marker relative to the total number of cells: FITC-labelled cells […], PI-labelled cells […], and cells with ruptured cell membrane (necrotic cells will be double-labelled).

[4] = tested on: T. cruzi clone Dm28c epimastigotes; test: Growth inhibition of T. cruzi epimastigotes, resazurin microdilution, Dm28c; assay type: cell-based, Trypanosoma cruzi
Procedure: as §1, §2

SMILES	in vivo anti-trypanosomal effects (Trypanosoma cruzi)	dissolution in clove oil [1]	other results
NS(=O)(=O)c1ccc(NC(=O)Cc2ccc(Cl)cc2)c(F)c1 [3F]	did not show in vivo anti-trypanosomal effects	dissolved efficiently	
NS(=O)(=O)c1ccc(NC(=O)Cc2ccccc2Br)c(F)c1 [3G]	did not show in vivo anti-trypanosomal effects	dissolved efficiently	
NS(=O)(=O)c1ccc(CCNC(=O)Cc2ccccc2Br)cc1 [3W]	did not show in vivo anti-trypanosomal effects	dissolved efficiently	
NS(=O)(=O)c1nnc(NC(=O)Cc2ccc(Cl)cc2)s1 [5B]	did not show in vivo anti-trypanosomal effects	dissolved efficiently	
NS(=O)(=O)c1nnc(NC(=O)Cc2ccccc2Br)s1 [5C]	did not show in vivo anti-trypanosomal effects	dissolved efficiently	
COc1ccc(CC(=O)Nc2nnc(S(N)(=O)=O)s2)cc1 [5D]	did not show in vivo anti-trypanosomal effects	dissolved efficiently	
O=C(Cn1ccnc1[N+](=O)[O-])NCc1ccccc1 [BZN, 2-nitro-imidazole-(N-benzil-2-nitro-1imidazoleacetamide)]			IC90 [2]: > 128 µM; cell death by necrosis (propidium iodide) [3]: 51.16%; pIC50 ([4]; Trypanosoma cruzi, read-out: IC50 (concentration which reduced the proliferation of epimastigotes by 50%), Tc DM28c epimastigotes, drug nanoemulsions): 4.69; IC90 ([4]; Trypanosoma cruzi, Tc DM28c epimastigotes, drug nanoemulsions, read-out: IC90 (concentration which reduced the proliferation of epimastigotes by 90%)): > 128 µM; SI (selectivity index) ([4]; both strains (DM28c and Y), CC50 RAW / IC50): 5–5.8
